Consider 20 compounds from US8574563B2 (Bristol-Myers Squibb Company, priority 2006, dated 2013).

In the assay the test system is HCV 1b-377-neo replicon cells. In words: HCV replicon assay, HCV 1b-377-neo replicon cells (1b FRET). The format is cell-based, Hepatitis C virus genotype 1b. The note with it: Hepatitis C virus, HCV 1b-377-neo replicon cells; HCV 1b genotype; read-out: EC50 range against HCV 1b (Table 2, Range). Put shortly: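 Compounds were tested in genotype 1b subgenomic replicon cells carrying a neomycin marker, alongside a matched replicon line with an NS5A Y2065H substitution that confers resistance to a reference NS5A inhibitor.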
Turning to `COC(=O)N[C@@H](C(=O)N1CC2(CC2)C[C@H]1c1nc(-c2ccc(-c3ccc(-c4c[nH]c([C@@H]5CC6(CC6)CN5C(=O)[C@H](NC(=O)OC)c5ccccc5)n4)cc3)cc2)c[nH]1)c1ccccc1` [Example M150, dimethyl (4,4′-biphenyldiylbis(1H-imidazole-4,2-diyl(6S)-5-azaspiro[2.4]heptane-6,5-diyl((1R)-2-oxo-1-phenyl-2,1-ethanediyl)))biscarbamate], the EC50 lay within 0.001 to 0.999 nM.

Turning to `COC(=O)N[C@H](C(=O)N1[C@@H](C)CC[C@H]1c1ncc(-c2ccc(-c3ccc(-c4cnc([C@@H]5CC[C@H](C)N5C(=O)[C@@H](NC(=O)OC)C(C)C)[nH]4)cc3)cc2)[nH]1)C(C)C` [Example M151, methyl ((1S)-1-(((2S,5S)-2-(4-(4′-(2-((2S,5S)-1-((2S)-2-((methoxycarbonyl)amino)-3-methylbutanoyl)-5-methyl-2-pyrrolidinyl)-1H-imidazol-4-yl)-4-biphenylyl)-1H-imidazol-2-yl)-5-methyl-1-pyrrolidinyl)carbonyl)-2-methylpropyl)carbamate], the EC50 was in the range of 0.001 to 0.999 nM.

As for `COC(=O)N[C@@H](C(=O)N1[C@@H](C)CC[C@H]1c1nc(-c2ccc(-c3ccc(-c4c[nH]c([C@@H]5CC[C@H](C)N5C(=O)[C@H](NC(=O)OC)c5ccccc5)n4)cc3)cc2)c[nH]1)c1ccccc1` [Example M153, dimethyl (4,4′-biphenyldiylbis(1H-imidazole-4,2-diyl((2S,5S)-5-methyl-2,1-pyrrolidinediyl)((1R)-2-oxo-1-phenyl-2,1-ethanediyl)))biscarbamate], the EC50 is 0.001 to 0.999 nM.

With `CC[C@H](NC(=O)OC)C(=O)N1[C@@H](C)CC[C@H]1c1nc(-c2ccc(-c3ccc(-c4c[nH]c([C@@H]5CC[C@H](C)N5C(=O)[C@H](CC)NC(=O)OC)n4)cc3)cc2)c[nH]1` [Example M154, dimethyl (4,4′-biphenyldiylbis(1H-imidazole-4,2-diyl((2S,5S)-5-methyl-2,1-pyrrolidinediyl)((2S)-1-oxo-1,2-butanediyl)))biscarbamate], the EC50 was 0.001 to 0.999 nM.

`COC(=O)NCC(=O)N1[C@@H](C)CC[C@H]1c1nc(-c2ccc(-c3ccc(-c4c[nH]c([C@@H]5CC[C@H](C)N5C(=O)CNC(=O)OC)n4)cc3)cc2)c[nH]1` [Example M155, methyl (2-((2S,5S)-2-(4-(4′-(2-((2S,5S)-1-(((methoxycarbonyl)amino)acetyl)-5-methyl-2-pyrrolidinyl)-1H-imidazol-4-yl)-4-biphenylyl)-1H-imidazol-2-yl)-5-methyl-1-pyrrolidinyl)-2-oxoethyl)carbamate]: the EC50 was in the range of 1 to 99 nM.

For the compound `COC(=O)NC(C)(C)C(=O)N1[C@@H](C)CC[C@H]1c1nc(-c2ccc(-c3ccc(-c4c[nH]c([C@@H]5CC[C@H](C)N5C(=O)C(C)(C)NC(=O)OC)n4)cc3)cc2)c[nH]1` [Example M156, methyl (2-((2S,5S)-2-(4-(4′-(2-((2S,5S)-1-(2-((methoxycarbonyl)amino)-2-methylpropanoyl)-5-methyl-2-pyrrolidinyl)-1H-imidazol-4-yl)-4-biphenylyl)-1H-imidazol-2-yl)-5-methyl-1-pyrrolidinyl)-1,1-dimethyl-2-oxoethyl)carbamate], the EC50 lay in the range of 1 to 99 nM.

Take `COC(=O)N[C@@H](C)C(=O)N1[C@@H](C)CC[C@H]1c1nc(-c2ccc(-c3ccc(-c4c[nH]c([C@@H]5CC[C@H](C)N5C(=O)[C@H](C)NC(=O)OC)n4)cc3)cc2)c[nH]1` [Example M157, methyl ((1S)-2-((2S,5S)-2-(4-(4′-(2-((2S,5S)-1-(N-(methoxycarbonyl)-L-alanyl)-5-methyl-2-pyrrolidinyl)-1H-imidazol-4-yl)-4-biphenylyl)-1H-imidazol-2-yl)-5-methyl-1-pyrrolidinyl)-1-methyl-2-oxoethyl)carbamate]: the EC50 lay in the range of 0.001 to 0.999 nM.

In the case of `CC(C)CC(=O)N1[C@@H](C)CC[C@H]1c1nc(-c2ccc(-c3ccc(-c4c[nH]c([C@@H]5CC[C@H](C)N5C(=O)CC(C)C)n4)cc3)cc2)c[nH]1` [Example M158, 4,4′-(4,4′-biphenyldiyl)bis(2-((2S,5S)-5-methyl-1-(3-methylbutanoyl)-2-pyrrolidinyl)-1H-imidazole)], the EC50 lay in the range of 1 to 99 nM.

With `C[C@H]1CC[C@@H](c2nc(-c3ccc(-c4ccc(-c5c[nH]c([C@@H]6CC[C@H](C)N6C(=O)Cc6ccccc6)n5)cc4)cc3)c[nH]2)N1C(=O)Cc1ccccc1` [Example M159, 4,4′-(4,4′-biphenyldiyl)bis(2-((2S,5S)-5-methyl-1-(phenylacetyl)-2-pyrrolidinyl)-1H-imidazole)], the EC50 fell in the range of 0.001 to 0.999 nM.

In the case of `CC(C)[C@@H](O)C(=O)N1[C@@H](C)CC[C@H]1c1nc(-c2ccc(-c3ccc(-c4c[nH]c([C@@H]5CC[C@H](C)N5C(=O)[C@H](O)C(C)C)n4)cc3)cc2)c[nH]1` [Example M160, (2R,2′R)-1,1′-(4,4′-biphenyldiylbis(1H-imidazole-4,2-diyl((2S,5S)-5-methyl-2,1-pyrrolidinediyl)))bis(3-methyl-1-oxo-2-butanol)], the EC50 lay within 1 to 99 nM.

Consider `CC(C)[C@H](O)C(=O)N1[C@@H](C)CC[C@H]1c1nc(-c2ccc(-c3ccc(-c4c[nH]c([C@@H]5CC[C@H](C)N5C(=O)[C@@H](O)C(C)C)n4)cc3)cc2)c[nH]1` [Example M161, (2S,2′S)-1,1′-(4,4′-biphenyldiylbis(1H-imidazole-4,2-diyl((2S,5S)-5-methyl-2,1-pyrrolidinediyl)))bis(3-methyl-1-oxo-2-butanol)], for which the EC50 was 1 to 99 nM.

With `COC(=O)N[C@@H](C)C(=O)N1C[C@H](F)C[C@H]1c1ncc(-c2ccc(-c3ccc(-c4cnc([C@@H]5C[C@@H](F)CN5C(=O)[C@H](C)NC(=O)OC)[nH]4)cc3)cc2)[nH]1` [JG-3, methyl ((1S)-2-((2S,4R)-4-fluoro-2-(5-(4′-(2-((2S,4R)-4-fluoro-1-(N-(methoxycarbonyl)-L-alanyl)-2-pyrrolidinyl)-1H-imidazol-5-yl)-4-biphenylyl)-1H-imidazol-2-yl)-1-pyrrolidinyl)-1-methyl-2-oxoethyl)carbamate], the EC50 was 0.001 to 0.999 nM.

For `COC(=O)N[C@@H](C)C(=O)N1C[C@H](O)C[C@H]1c1ncc(-c2ccc(-c3ccc(-c4cnc([C@@H]5C[C@@H](O)CN5C(=O)[C@H](C)NC(=O)OC)[nH]4)cc3)cc2)[nH]1` [JG-4], the EC50 was in the range of 1 to 99 nM.

Regarding `COC(=O)N[C@H](C(=O)N1C[C@H](O)C[C@H]1c1ncc(-c2ccc(-c3ccc(-c4cnc([C@@H]5C[C@@H](O)CN5C(=O)[C@@H](NC(=O)OC)C(C)C)[nH]4)cc3)cc2)[nH]1)C(C)C` [JG-5, methyl ((1S)-1-(((2S,4R)-4-hydroxy-2-(5-(4′-(2-((2S,4R)-4-hydroxy-1-((2S)-2-((methoxycarbonyl)amino)-3-methylbutanoyl)-2-pyrrolidinyl)-1H-imidazol-5-yl)-4-biphenylyl)-1H-imidazol-2-yl)-1-pyrrolidinyl)carbonyl)-2-methylpropyl)carbamate], the EC50 lay within 0.001 to 0.999 nM.

`COC(=O)N[C@H](C(=O)N1C[C@H](O)C[C@H]1c1ncc(-c2ccc(-c3ccc(-c4cnc([C@@H]5C[C@@H](O)CN5C(=O)[C@@H](NC(=O)OC)C5CC5)[nH]4)cc3)cc2)[nH]1)C1CC1` [JG-6, dimethyl (4,4′-biphenyldiylbis(1H-imidazole-5,2-diyl((2S,4R)-4-hydroxy-2,1-pyrrolidinediyl)((1S)-1-cyclopropyl-2-oxo-2,1-ethanediyl)))biscarbamate]: the EC50 lay within 1 to 99 nM.

For `CCN(CC)[C@@H](C(=O)N1C[C@@H](O)C[C@H]1c1ncc(-c2ccc(-c3ccc(-c4cnc([C@@H]5C[C@H](O)CN5C(=O)[C@@H](c5ccccc5)N(CC)CC)[nH]4)cc3)cc2)[nH]1)c1ccccc1` [JG-7, (3S,5S,3′S,5′S)-5,5′-(4,4′-biphenyldiylbis(1H-imidazole-5,2-diyl))bis(1-((2R)-2-(diethylamino)-2-phenylacetyl)-3-pyrrolidinol)], the EC50 lay within 0.001 to 0.999 nM.

Turning to `COC(=O)N[C@@H](C)C(=O)N1C[C@@H](O)C[C@H]1c1ncc(-c2ccc(-c3ccc(-c4cnc([C@@H]5C[C@H](O)CN5C(=O)[C@H](C)NC(=O)OC)[nH]4)cc3)cc2)[nH]1` [JG-8, methyl ((1S)-2-((2S,4S)-4-hydroxy-2-(5-(4′-(2-((2S,4S)-4-hydroxy-1-(N-(methoxycarbonyl)-L-alanyl)-2-pyrrolidinyl)-1H-imidazol-5-yl)-4-biphenylyl)-1H-imidazol-2-yl)-1-pyrrolidinyl)-1-methyl-2-oxoethyl)carbamate], the EC50 lay in the range of 0.001 to 0.999 nM.

Turning to `COC(=O)N[C@H](C(=O)N1C[C@@H](O)C[C@H]1c1ncc(-c2ccc(-c3ccc(-c4cnc([C@@H]5C[C@H](O)CN5C(=O)[C@@H](NC(=O)OC)C(C)C)[nH]4)cc3)cc2)[nH]1)C(C)C` [JG-9, methyl ((1S)-1-(((2S,4S)-4-hydroxy-2-(5-(4′-(2-((2S,4S)-4-hydroxy-1-((2S)-2-((methoxycarbonyl)amino)-3-methylbutanoyl)-2-pyrrolidinyl)-1H-imidazol-5-yl)-4-biphenylyl)-1H-imidazol-2-yl)-1-pyrrolidinyl)carbonyl)-2-methylpropyl)carbamate], the EC50 was in the range of 0.001 to 0.999 nM.

Turning to `COC(=O)N[C@H](C(=O)N1C[C@@H](F)C[C@H]1c1ncc(-c2ccc(-c3ccc(-c4cnc([C@@H]5C[C@H](F)CN5C(=O)[C@@H](NC(=O)OC)C(C)C)[nH]4)cc3)cc2)[nH]1)C(C)C` [JG-10, methyl ((1S)-1-(((2S,4S)-4-fluoro-2-(5-(4′-(2-((2S,4S)-4-fluoro-1-((2S)-2-((methoxycarbonyl)amino)-3-methylbutanoyl)-2-pyrrolidinyl)-1H-imidazol-5-yl)-4-biphenylyl)-1H-imidazol-2-yl)-1-pyrrolidinyl)carbonyl)-2-methylpropyl)carbamate], the EC50 lay in the range of 1 to 99 nM.

For the compound `COC(=O)N[C@@H](CC(C)C)C(=O)N1C[C@H](F)C[C@H]1c1ncc(-c2ccc(-c3ccc(-c4cnc([C@@H]5C[C@@H](F)CN5C(=O)[C@H](CC(C)C)NC(=O)OC)[nH]4)cc3)cc2)[nH]1` [JG-12, methyl ((1S)-1-(((2S,4R)-4-fluoro-2-(5-(4′-(2-((2S,4R)-4-fluoro-1-((2S)-2-((methoxycarbonyl)amino)-4-methylpentanoyl)-2-pyrrolidinyl)-1H-imidazol-5-yl)-4-biphenylyl)-1H-imidazol-2-yl)-1-pyrrolidinyl)carbonyl)-3-methylbutyl)carbamate], the EC50 was in the range of 0.001 to 0.999 nM.
